Twelve molecules from publication PMC7531004, “Discovery of gramicidin A analogues with altered activities by multidimensional screening of a one-bead-one-compound library” (Nature Communications, 2020) can be followed below.

Where a SMILES comes first, the peptide text is derived from it. [ ]: non-standard residue; d: D form. The star is where a group is joined. NHCH2CH2OH = OCCN*; For = O=C*

Series [1] is described as follows: H+/Na+ transport assay of bead-derived peptides (one-point).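 Further: relative to parent gramicidin A activity set to 1.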 As to conditions: bead-derived peptide solution, EYPC/EYPG LUVs. Also noted: key: relative activity; mean of two control wells = 1.00. Format: biochemical. The method in brief:
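H+/Na+ transport is monitored through pyranine fluorescence in freshly extruded LUVs after a 30-min room-temperature vortex with each library peptide at a single concentration. Signals are normalized to detergent (Triton X-100) and untreated controls.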

Series [2] relates to P388 mouse leukemia cells. As to conditions: 92 h. The method in brief: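 First, library peptide stocks are diluted 250-fold in RPMI1640 with 10% heat-inactivated FBS. Next, they are mixed with P388 cells to give 1 × 10^4 cells/mL and incubated 92 h at 37 °C, 5% CO2. Finally, viability (%) is scored by WST-1 absorbance at 415 nm.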
Series [3] concerns Streptococcus pyogenes SSI-9. The experiment in a line: Antibacterial activity assay of bead-derived peptides (three concentrations). Further details: key: +++: inhibition by the 640-fold diluted peptide solution; ++: inhibition by the 160-fold diluted solution; +: inhibition by the 40-fold diluted solution; -: no inhibition. Particulars: S. pyogenes, bead-derived peptide solution, three concentrations. In kind it is cell-based. The method in brief: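 Three stock dilutions per peptide (none, 4-fold, 16-fold in DMSO) are screened in 96-well format. The medium is blood-supplemented cation-adjusted MHB, inoculated with 2 × 10^5 CFU S. pyogenes SSI-9. Growth is read as cell precipitation at 18 h, 37 °C.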

Regarding `CC(C)C[C@@H](NC(=O)[C@H](C)NC(=O)CNC(=O)[C@@H](NC=O)C(C)C)C(=O)N[C@@H](C)C(=O)N[C@@H](C(=O)N[C@H](C(=O)N[C@H](CC(C)C)C(=O)N[C@@H](Cc1c[nH]c2ccccc12)C(=O)N[C@@H](C(=O)N[C@@H](Cc1c[nH]c2ccccc12)C(=O)N[C@H](CC(C)C)C(=O)N[C@@H](Cc1c[nH]c2ccccc12)C(=O)N[C@@H](C(=O)N[C@@H](Cc1c[nH]c2ccccc12)C(=O)NCCO)C(C)C)C(C)C)C(C)C)C(C)C` [compound 4895] (For-VGA[dL]A[dV]V[dL]W[dV]W[dL]W[dV]W-NHCH2CH2OH), the “H+/Na+ transport activity normalized against the value of 1 (1.00)” value (“H+/Na+ transport activity normalized” below) in series [1] was 1.16. In series [2], the cell viability/% came out at 48.2%. The antibacterial activity result in series [3] was “+”.

As for `CC(C)C[C@@H](NC(=O)[C@H](C)NC(=O)CNC(=O)[C@@H](NC=O)C(C)C)C(=O)N[C@@H](C)C(=O)N[C@@H](C(=O)N[C@H](C(=O)N[C@H](CC(C)C)C(=O)N[C@@H](Cc1c[nH]c2ccccc12)C(=O)N[C@@H](C(=O)N[C@@H](Cc1c[nH]c2ccccc12)C(=O)N[C@H](CC(C)C)C(=O)N[C@@H](Cc1c[nH]c2ccccc12)C(=O)N[C@@H](C(=O)N[C@@H](Cc1c[nH]c2ccccc12)C(=O)NCCO)[C@H](C)O)C(C)C)C(C)C)C(C)C` [compound 5058] (For-VGA[dL]A[dV]V[dL]W[dV]W[dL]W[dT]W-NHCH2CH2OH), the “H+/Na+ transport activity normalized” value in series [1] is recorded as 1.02. In series [2], this molecule showed a cell viability/% of 100.0%. Moreover, the antibacterial activity result in series [3] is on record as “-”.

Regarding `CNC(=O)C[C@@H](NC(=O)[C@H](Cc1c[nH]c2ccccc12)NC(=O)[C@H](NC(=O)[C@@H](NC(=O)[C@@H](CC(C)C)NC(=O)[C@H](C)NC(=O)[C@@H](CC(C)C)NC(=O)[C@H](C)NC(=O)CNC(=O)[C@@H](NC=O)C(C)C)C(C)C)C(C)C)C(=O)N[C@@H](Cc1c[nH]c2ccccc12)C(=O)N[C@H](CC(C)C)C(=O)N[C@@H](Cc1c[nH]c2ccccc12)C(=O)N[C@@H](C(=O)N[C@@H](Cc1c[nH]c2ccccc12)C(=O)NCCO)C(C)C` [compound 5091] (For-VGA[dL]A[dL]V[dV]W[dD](NHMe)W[dL]W[dV]W-NHCH2CH2OH), the “H+/Na+ transport activity normalized” value in series [1] is 1.05. In series [2], the cell viability/% is on record as 100.0%. In addition, the antibacterial activity result in series [3] is listed as “+”.

With `CC(C)C[C@@H](NC(=O)[C@H](Cc1c[nH]c2ccccc12)NC(=O)[C@H](NC(=O)[C@H](Cc1c[nH]c2ccccc12)NC(=O)[C@H](NC(=O)[C@H](Cc1c[nH]c2ccccc12)NC(=O)[C@H](NC(=O)[C@@H](NC(=O)[C@H](NC(=O)[C@H](C)NC(=O)[C@H](NC(=O)[C@H](C)NC(=O)CNC(=O)[C@@H](NC=O)C(C)C)C(C)C)[C@H](C)O)C(C)C)C(C)C)C(C)C)C(C)C)C(=O)N[C@@H](Cc1c[nH]c2ccccc12)C(=O)NCCO` [compound 5164] (For-VGA[dV]A[dT]V[dV]W[dV]W[dV]W[dL]W-NHCH2CH2OH), the “H+/Na+ transport activity normalized” value in series [1] was determined as 1.19. The molecule further returned a cell viability/% in series [2] of 100.0%. In addition, the antibacterial activity entry in series [3] is given as “-”.

In the case of `CC(C)C[C@@H](NC(=O)[C@H](C)NC(=O)CNC(=O)[C@@H](NC=O)C(C)C)C(=O)N[C@@H](C)C(=O)N[C@@H](C(=O)N[C@H](C(=O)N[C@@H](C(=O)N[C@@H](Cc1c[nH]c2ccccc12)C(=O)N[C@@H](C(=O)N[C@@H](Cc1c[nH]c2ccccc12)C(=O)N[C@H](CC(C)C)C(=O)N[C@@H](Cc1c[nH]c2ccccc12)C(=O)N[C@@H](C(=O)N[C@@H](Cc1c[nH]c2ccccc12)C(=O)NCCO)C(C)C)C(C)C)[C@H](C)O)C(C)C)C(C)C` [compound 5167] (For-VGA[dL]A[dV]V[dT]W[dV]W[dL]W[dV]W-NHCH2CH2OH), in series [1], the “H+/Na+ transport activity normalized” value came out at 1.33. This molecule also came in with a cell viability/% in series [2] of 100.0%. Further, the antibacterial activity entry in series [3] is “-”.

As for `CC(C)C[C@@H](NC(=O)[C@H](Cc1c[nH]c2ccccc12)NC(=O)[C@H](NC(=O)[C@@H](NC(=O)[C@H](NC(=O)[C@H](C)NC(=O)[C@H](NC(=O)[C@H](C)NC(=O)CNC(=O)[C@@H](NC=O)C(C)C)C(C)C)C(C)C)C(C)C)C(C)C)C(=O)N[C@@H](Cc1c[nH]c2ccccc12)C(=O)N[C@H](CC(C)C)C(=O)N[C@@H](Cc1c[nH]c2ccccc12)C(=O)N[C@@H](C(=O)N[C@@H](Cc1c[nH]c2ccccc12)C(=O)NCCO)[C@H](C)O` [compound 5172] (For-VGA[dV]A[dV]V[dV]W[dL]W[dL]W[dT]W-NHCH2CH2OH), the “H+/Na+ transport activity normalized” value in series [1] was found to be 1.27. For the same molecule, in series [2], the cell viability/% was determined as 100.0%. In addition, in series [3], the antibacterial activity entry is “++”.

Turning to `CC(C)C[C@@H](NC(=O)[C@H](C)NC(=O)CNC(=O)[C@@H](NC=O)C(C)C)C(=O)N[C@@H](C)C(=O)N[C@H](CC(C)C)C(=O)N[C@H](C(=O)N[C@H](CC(C)C)C(=O)N[C@@H](Cc1c[nH]c2ccccc12)C(=O)N[C@@H](C(=O)N[C@@H](Cc1c[nH]c2ccccc12)C(=O)N[C@@H](C(=O)N[C@@H](Cc1c[nH]c2ccccc12)C(=O)N[C@@H](C(=O)N[C@@H](Cc1c[nH]c2ccccc12)C(=O)NCCO)C(C)C)[C@H](C)O)C(C)C)C(C)C` [compound 5178] (For-VGA[dL]A[dL]V[dL]W[dV]W[dT]W[dV]W-NHCH2CH2OH), the “H+/Na+ transport activity normalized” value in series [1] is 1.22. Besides, the cell viability/% in series [2] turned out to be 100.0%. In addition, the antibacterial activity entry in series [3] is on record as “-”.

On to `CNC(=O)C[C@@H](NC(=O)[C@@H](NC(=O)[C@H](NC(=O)[C@H](C)NC(=O)[C@@H](CC(C)C)NC(=O)[C@H](C)NC(=O)CNC(=O)[C@@H](NC=O)C(C)C)C(C)C)C(C)C)C(=O)N[C@@H](Cc1c[nH]c2ccccc12)C(=O)N[C@@H](C(=O)N[C@@H](Cc1c[nH]c2ccccc12)C(=O)N[C@H](CC(C)C)C(=O)N[C@@H](Cc1c[nH]c2ccccc12)C(=O)N[C@@H](C(=O)N[C@@H](Cc1c[nH]c2ccccc12)C(=O)NCCO)C(C)C)C(C)C` [compound 5185] (For-VGA[dL]A[dV]V[dD](NHMe)W[dV]W[dL]W[dV]W-NHCH2CH2OH), for which the “H+/Na+ transport activity normalized” value in series [1] was 1.40. In series [2], this molecule gave a cell viability/% of 100.0%. Besides, the antibacterial activity result in series [3] is given as “-”.

Regarding `CC(C)[C@H](NC=O)C(=O)NCC(=O)N[C@@H](C)C(=O)N[C@@H](C(=O)N[C@@H](C)C(=O)N[C@@H](C(=O)N[C@H](C(=O)N[C@@H](C(=O)N[C@@H](Cc1c[nH]c2ccccc12)C(=O)N[C@@H](C(=O)N[C@@H](Cc1c[nH]c2ccccc12)C(=O)N[C@@H](C(=O)N[C@@H](Cc1c[nH]c2ccccc12)C(=O)N[C@@H](C(=O)N[C@@H](Cc1c[nH]c2ccccc12)C(=O)NCCO)C(C)C)C(C)C)[C@H](C)O)C(C)C)C(C)C)C(C)C)C(C)C` [compound 5205] (For-VGA[dV]A[dV]V[dV]W[dT]W[dV]W[dV]W-NHCH2CH2OH), the “H+/Na+ transport activity normalized” value in series [1] is given as 1.22. Besides, the cell viability/% in series [2] was 100.0%. Also, the antibacterial activity entry in series [3] was “-”.

Take `CC(C)C[C@@H](NC(=O)[C@H](C)NC(=O)[C@H](NC(=O)[C@H](C)NC(=O)CNC(=O)[C@@H](NC=O)C(C)C)[C@H](C)O)C(=O)N[C@H](C(=O)N[C@H](CC(C)C)C(=O)N[C@@H](Cc1c[nH]c2ccccc12)C(=O)N[C@@H](C(=O)N[C@@H](Cc1c[nH]c2ccccc12)C(=O)N[C@H](CC(C)C)C(=O)N[C@@H](Cc1c[nH]c2ccccc12)C(=O)N[C@H](CC(C)C)C(=O)N[C@@H](Cc1c[nH]c2ccccc12)C(=O)NCCO)[C@H](C)O)C(C)C` [compound 5215] (For-VGA[dT]A[dL]V[dL]W[dT]W[dL]W[dL]W-NHCH2CH2OH): the “H+/Na+ transport activity normalized” value in series [1] amounted to 1.33. Moreover, in series [2], the cell viability/% was 100.0%. Further, in series [3], the antibacterial activity entry is reported as “-”.

As for `CC(C)C[C@@H](NC(=O)[C@H](C)NC(=O)[C@H](NC(=O)[C@H](C)NC(=O)CNC(=O)[C@@H](NC=O)C(C)C)C(C)C)C(=O)N[C@H](C(=O)N[C@@H](C(=O)N[C@@H](Cc1c[nH]c2ccccc12)C(=O)N[C@H](CC(C)C)C(=O)N[C@@H](Cc1c[nH]c2ccccc12)C(=O)N[C@@H](C(=O)N[C@@H](Cc1c[nH]c2ccccc12)C(=O)N[C@H](CC(C)C)C(=O)N[C@@H](Cc1c[nH]c2ccccc12)C(=O)NCCO)C(C)C)C(C)C)C(C)C` [compound 5241] (For-VGA[dV]A[dL]V[dV]W[dL]W[dV]W[dL]W-NHCH2CH2OH), the “H+/Na+ transport activity normalized” value in series [1] is 1.39. The cell viability/% in series [2] is 12.2%. Besides, the antibacterial activity entry in series [3] is “++”.

On to `CNC(=O)C[C@@H](NC(=O)[C@H](Cc1c[nH]c2ccccc12)NC(=O)[C@@H](CC(C)C)NC(=O)[C@H](Cc1c[nH]c2ccccc12)NC(=O)[C@H](NC(=O)[C@H](Cc1c[nH]c2ccccc12)NC(=O)[C@@H](CC(C)C)NC(=O)[C@@H](NC(=O)[C@H](NC(=O)[C@H](C)NC(=O)[C@@H](CC(C)C)NC(=O)[C@H](C)NC(=O)CNC(=O)[C@@H](NC=O)C(C)C)C(C)C)C(C)C)C(C)C)C(=O)N[C@@H](Cc1c[nH]c2ccccc12)C(=O)NCCO` [compound 5302] (For-VGA[dL]A[dV]V[dL]W[dV]W[dL]W[dD](NHMe)W-NHCH2CH2OH), for which the “H+/Na+ transport activity normalized” value in series [1] is on record as 1.37. Besides, in series [2], the cell viability/% turned out to be 100.0%. The antibacterial activity entry in series [3] was “-”.
